What was measured:
NZM mice [1] = test: Splenomegaly (spleen mass), NZM mice (Example 2); assay type: in vivo, mouse; conditions: G5 1.5 mg/kg ip, 3× wk
MRL/lpr mice [2] = test: Luminex analysis of serum cytokines (IL-12p40/p70, IL-1β, TNFα), MRL/lpr mice; assay type: in vivo, mouse; conditions: G6: 1.5 mg/kg ip, 3× wk
Method: For the processing of serum samples for cytokine analysis, frozen plasma at −80° C. is thawed on ice, vortexed, and centrifuged for 10 minutes to remove debris and aggregates. A total of 25-50 μL of serum is used for Luminex® assays following the manufacturer's instructions. Ten different mouse cytokines are measured using the mouse cytokine 10-plex bead kit (Invitrogen, Carlsbad, Calif., no. LMC0001). Briefly, filter plates (Millipore, Billerica, Mass., no. MAIPSWU10), are pre-wet with 200 μL of wash solution (kit component) and 25 μL of beads are added per well. Serum samples are diluted and a total volume of 50 μL is added per well (ie, 25 μL of sample serum plus 25 μL of assay diluent as provided by the manufacturer). Plates with beads are incubated for 2 hours at room temperature (RT) on an orbital shaker in the dark. At the end of the incubation, plate(s) are washed twice in kit buffer, secondary biotinylated antibody is added at a 1:10 dilution (100 μL) in biotin diluent provided with the kit. Plates are incubated at RT for 1 hour in the dark then washed twice in kit buffer. Strepavidin in assay diluent is added at 100 μL per well, then incubated for 30 minutes at RT in the dark. The plates are washed 3 times then 100 μL of kit wash solution is added and agitated for 2-3 minutes at RT in the dark. Plates are run immediately following this incubation period on a Luminex xMAP 200 unit with data acquisition and analysis software (Invitrogen, San Diego, Calif., no. MAP0200). All bead washing is performed using a vacuum manifold unit (Pall, Ann Arbor, Mich. no. 5017). For all cytokine Luminex assays, values below the limit of detection set by the lowest point along the standard or set by the manufacturer are considered out of range and are not estimated, but assumed the lowest point along the standard curve for that particular assay.
(§1) Mice are tracked on an individual basis.
(§2) Vehicle alone is provided orally twice weekly (p.o.). Both proteasome inhibitors are suspended in the vehicle solution. […] In addition, urine proteinuria is determined for all animals.
(§3) Vehicle was 3% DMSO/10% Solutol/87% PBS.

MRL/lpr mice [3] = test: Antinuclear antibody (ANA) ELISA (anti-chromatin, anti-Smith Ag, anti-dsDNA IgG), serum of MRL/lpr mice; assay type: in vivo, mouse; conditions: G6: 1.5 mg/kg ip, 3× wk
Description: For all ANA ELISA assays, values below the limit of detection set by the lowest point along the standard or set by the manufacturer are considered out of range and are not estimated, but assumed the lowest point along the standard curve for that particular assay.

MRL/lpr mice [4] = test: Lymphomegaly (enlarged lymph nodes), MRL/lpr mice; assay type: in vivo, mouse; conditions: G6: 1.5 mg/kg ip, 3× wk
Method: FIG. 4 depicts lymphomegaly for MRL/lpr mice across treatment groups for the study duration. MRL/lpr mice were treated as outlined in the legend. Lymphomegaly or presence of enlarged lymph nodes were observed weekly and noted.
as §1, §2, §3

MRL/lpr mice [5] = test: Spleen plasma cells by flow cytometry, MRL/lpr mice; conditions: G6: 1.5 mg/kg ip, 3× wk
MRL/lpr mice [6] = test: Splenomegaly (spleen mass), MRL/lpr mice; assay type: in vivo, mouse; conditions: G6: 1.5 mg/kg ip, 3× wk
Method: FIG. 5 depicts splenomegaly for MRL/lpr mice across treatment groups for the study duration. MRL/lpr mice were treated as outlined in the legend. The spleen masses for all mice that survived until the end of the experiment are graphed. Each symbol represents the spleen weight for one mouse at 25 weeks of age.
as §1, §2, §3

NZM mice [7] = assay type: in vivo, mouse
NZM mice [8] = test: Antinuclear antibody (ANA) ELISA (anti-chromatin, anti-Smith Ag, anti-dsDNA), serum of NZM mice (Example 2); assay type: in vivo, mouse; conditions: G5 1.5 mg/kg ip, 3× wk
NZM mice [9] = test: Survival, NZM lupus nephritis model, ip dosing (Example 2); assay type: in vivo, mouse; conditions: G5 1.5 mg/kg ip, 3× wk
NZM mice [10] = test: Serum C3 complement ELISA, NZM mice (Example 2)
NZM mice [11] = test: Body weight progression, NZM mice (Example 2); assay type: in vivo, mouse; conditions: G5 1.5 mg/kg ip, 3× wk

C[C@@H]1C[C@H]2[C@@H]3CCC4=CC(=O)C=C[C@]4(C)[C@@]3(F)[C@@H](O)C[C@]2(C)[C@@]1(O)C(=O)CO [dexamethasone, Dexamethasone, reference compound]
Spleen mass EOS, percent change vs vehicle (NZM mice [1]): −59% | Cytokine AUC serum IL-1β, percent change vs vehicle (MRL/lpr mice [2]): −44% | Cytokine AUC serum IL-12, percent change vs vehicle (MRL/lpr mice [2]): −74% | Cytokine AUC serum TNFα, percent change vs vehicle (MRL/lpr mice [2]): −87% | ANA AUC Smith Ag, percent change vs vehicle (MRL/lpr mice [3]): −45% | ANA AUC chromatin, percent change vs vehicle (MRL/lpr mice [3]): −47% | ANA AUC dsDNA, percent change vs vehicle (MRL/lpr mice [3]): −59% | AUC lymphomegaly, percent of non enlarged lymph nodes relative to vehicle (MRL/lpr mice [4]): 22% | EOS plasma cells, percent change vs vehicle (MRL/lpr mice [5]): +25% | EOS spleen mass, percent change vs vehicle (MRL/lpr mice [6]): −71% | Cytokine IL-12 AUC, percent change vs vehicle (NZM mice [7]; G5 1.5 mg/kg ip, 3× wk): −48% | Cytokine IL-13 AUC, percent change vs vehicle (NZM mice [7]; G5 1.5 mg/kg ip, 3× wk): −56% | Cytokine IL-17A AUC, percent change vs vehicle (NZM mice [7]; G5 1.5 mg/kg ip, 3× wk): −55% | Cytokine IP-10 AUC, percent change vs vehicle (NZM mice [7]; G5 1.5 mg/kg ip, 3× wk): −37% | Cytokine MIG AUC, percent change vs vehicle (NZM mice [7]; G5 1.5 mg/kg ip, 3× wk): −68% | Cytokine TNFα AUC, percent change vs vehicle (NZM mice [7]; G5 1.5 mg/kg ip, 3× wk): 79% | p, serum IL-12p40/p70 concentration vs G5 Bortezomib 0.3 mg/kg 1× wk ip (NZM mice [7]; G8 1.5 mg/kg 3× wk ip): NS (NS = not significant (p > 0.05)) | p, serum IL-12p40/p70 concentration vs G6 Bortezomib 0.3 mg/kg 2× wk ip (NZM mice [7]; G8 1.5 mg/kg 3× wk ip): NS (NS = not significant (p > 0.05)) | p, serum IL-12p40/p70 concentration vs G7 CTX 50 mg/kg 1× wk ip (NZM mice [7]; G8 1.5 mg/kg 3× wk ip): NS (NS = not significant (p > 0.05)) | p, serum IL-12p40/p70 concentration vs G9 Vehicle 1× wk ip (NZM mice [7]; G8 1.5 mg/kg 3× wk ip): NS (NS = not significant (p > 0.05)) | p, serum IL-13 concentration vs G5 Bortezomib 0.3 mg/kg 1× wk ip (NZM mice [7]; G8 1.5 mg/kg 3× wk ip): NS (NS = not significant (p > 0.05)) | p, serum IL-13 concentration vs G6 Bortezomib 0.3 mg/kg 2× wk ip (NZM mice [7]; G8 1.5 mg/kg 3× wk ip): NS (NS = not significant (p > 0.05)) | p, serum IL-13 concentration vs G7 CTX 50 mg/kg 1× wk ip (NZM mice [7]; G8 1.5 mg/kg 3× wk ip): p < 0.001 | p, serum IL-13 concentration vs G9 Vehicle 1× wk ip (NZM mice [7]; G8 1.5 mg/kg 3× wk ip): NS (NS = not significant (p > 0.05)) | p, serum IL-17A concentration vs G5 Bortezomib 0.3 mg/kg 1× wk ip (NZM mice [7]; G8 1.5 mg/kg 3× wk ip): NS (NS = not significant (p > 0.05)) | p, serum IL-17A concentration vs G6 Bortezomib 0.3 mg/kg 2× wk ip (NZM mice [7]; G8 1.5 mg/kg 3× wk ip): NS (NS = not significant (p > 0.05)) | p, serum IL-17A concentration vs G7 CTX 50 mg/kg 1× wk ip (NZM mice [7]; G8 1.5 mg/kg 3× wk ip): p < 0.001 | p, serum IL-17A concentration vs G9 Vehicle 1× wk ip (NZM mice [7]; G8 1.5 mg/kg 3× wk ip): NS (NS = not significant (p > 0.05)) | p, serum IP-10 concentration vs G5 Bortezomib 0.3 mg/kg 1× wk ip (NZM mice [7]; G8 1.5 mg/kg 3× wk ip): NS (NS = not significant (p > 0.05)) | p, serum IP-10 concentration vs G6 Bortezomib 0.3 mg/kg 2× wk ip (NZM mice [7]; G8 1.5 mg/kg 3× wk ip): NS (NS = not significant (p > 0.05)) | p, serum IP-10 concentration vs G7 CTX 50 mg/kg 1× wk ip (NZM mice [7]; G8 1.5 mg/kg 3× wk ip): p < 0.001 | p, serum IP-10 concentration vs G9 Vehicle 1× wk ip (NZM mice [7]; G8 1.5 mg/kg 3× wk ip): p < 0.001 | p, serum MIG concentration vs G5 Bortezomib 0.3 mg/kg 1× wk ip (NZM mice [7]; G8 1.5 mg/kg 3× wk ip): NS (NS = not significant (p > 0.05)) | p, serum MIG concentration vs G6 Bortezomib 0.3 mg/kg 2× wk ip (NZM mice [7]; G8 1.5 mg/kg 3× wk ip): NS (NS = not significant (p > 0.05)) | p, serum MIG concentration vs G7 CTX 50 mg/kg 1× wk ip (NZM mice [7]; G8 1.5 mg/kg 3× wk ip): p < 0.001 | p, serum MIG concentration vs G9 Vehicle 1× wk ip (NZM mice [7]; G8 1.5 mg/kg 3× wk ip): NS (NS = not significant (p > 0.05)) | p, serum TNFα concentration vs G5 Bortezomib 0.3 mg/kg 1× wk ip (NZM mice [7]; G8 1.5 mg/kg 3× wk ip): NS (NS = not significant (p > 0.05)) | p, serum TNFα concentration vs G6 Bortezomib 0.3 mg/kg 2× wk ip (NZM mice [7]; G8 1.5 mg/kg 3× wk ip): p <0.01 | p, serum TNFα concentration vs G7 CTX 50 mg/kg 1× wk ip (NZM mice [7]; G8 1.5 mg/kg 3× wk ip): p <0.05 | p, serum TNFα concentration vs G9 Vehicle 1× wk ip (NZM mice [7]; G8 1.5 mg/kg 3× wk ip): NS (NS = not significant (p > 0.05)) | ANA Smith Ag AUC, percent change vs vehicle (NZM mice [8]): −56% | ANA chromatin AUC, percent change vs vehicle (NZM mice [8]): −8% | ANA dsDNA AUC, percent change vs vehicle (NZM mice [8]): −19% | EOS survival, percent live mice from original number (NZM mice [9]): 10% | Serum C3 complement AUC, percent change vs vehicle (NZM mice [10]; G5 1.5 mg/kg ip, 3× wk): 45% | p, serum C3 complement levels vs G6 Bortezomib 0.3 mg/kg 2× wk ip (NZM mice [10]; G8 1.5 mg/kg 3× wk ip): p < 0.05 | p, serum C3 complement levels vs G7 CTX 50 mg/kg 1× wk ip (NZM mice [10]; G8 1.5 mg/kg 3× wk ip): p < 0.01 | Body mass AUC, percent change vs vehicle (NZM mice [11]): −1%

— patent US9340559B2, “Proteasome inhibitor delanzomib for use in the treatment of lupus” (Cephalon, Inc., priority 2011, dated 2016)
